Several values for one entry are separate records, joined by “and”; a condition that tells them apart may be missing. Equal entries are not always repeated.
Tests used:
[1] = test system: prion disease mouse models; conditions: in vivo, ip, 0.25 mg/kg; cited from earlier work
nontransgenic mice = assay: Pilot Morris water maze #1 (spatial learning and memory); conditions: for MWM training distance Trial*ISRIB (linear mixed effects regression model) / MWM training latency Trial*ISRIB (linear mixed effects regression model): vs vehicle; for MWM training latency Trial*ISRIB (linear mixed effects regression model): 6-7 month-old nontransgenic mice; for %Target Quadrant (percent time spent in target quadrant) / Crossing Frequency (number of platform crossings) / Latency to Target / Crossing Frequency: individual mice; for Distance / Latency: Fig 2A; for Crossing Frequency: Fig 2C
[2] = parameters: method as in Di Prisco et al., 2014; conditions: acute treatment; ref Di Prisco et al., 2014; cited from earlier work
[3] = 0.1 mpk i.p. after each training trial
[4] = 0.25 mpk i.p. after each training trial
[5] = 24-hour probe trial (Fig 2B), 0.1mpk
[6] = 24-hour probe trial (Fig 2B), 0.25mpk
[7] = 72-hour probe trial (Fig 2C), 0.1mpk
[8] = 72-hour probe trial (Fig 2C), 0.25mpk
[9] = ISRIB 0.1mpk, Trial 1, individual mice
[10] = ISRIB 0.1mpk, Trial 2, individual mice
[11] = ISRIB 0.1mpk, Trial 3, individual mice
[12] = ISRIB 0.1mpk, Trial 4, individual mice
[13] = ISRIB 0.25mpk, Trial 1, individual mice
[14] = ISRIB 0.25mpk, Trial 2, individual mice
[15] = ISRIB 0.25mpk, Trial 3, individual mice

In the case of `O=C(COc1ccc(Cl)cc1)NC1CCC(NC(=O)COc2ccc(Cl)cc2)CC1` (stereo not shown) [ISRIB], the extension of survival [1] is given as “approximately 1 week”, the “MWM training distance Trial*ISRIB (linear mixed effects regression model)” value (nontransgenic mice; [3]) is given as -35 cm/day and the “MWM training latency Trial*ISRIB (linear mixed effects regression model)” value (nontransgenic mice; [3]) is given as −1.2 sec/day. For the same compound, the “MWM training distance Trial*ISRIB (linear mixed effects regression model)” value (nontransgenic mice; [4]) was -36 cm/day, the “MWM training latency Trial*ISRIB (linear mixed effects regression model)” value (nontransgenic mice; [4]) was −0.9 sec/day and the “%Target Quadrant (percent time spent in target quadrant)” value (nontransgenic mice; [5]) was 44.0932% and 16.8608% and 27.6206% and 29.7282% and 34.8863% and 38.4914% and 18.802% and 29.5064% and 21.1869% and 54.6312% and 23.8491% and 29.5618% and 18.2474% and 16.6944%. For the same compound, the “Crossing Frequency (number of platform crossings)” value (nontransgenic mice; [5]) was 3 and 1 and 0 and 5 and 2, the “Latency to Target” value (nontransgenic mice; [5]) was 15.4154 and 14.3143 and 9.776 and 14.281 and 10.9109 and 23.8572 and 8.075 and 28.4618 and 6.173 and 49.9833 and 54.0207 and 5.439 and the “%Target Quadrant (percent time spent in target quadrant)” value (nontransgenic mice; [6]) was 41.7083% and 28.508% and 15.9179% and 23.35% and 35.33% and 30.3383% and 37.9922% and 36.7721% and 24.4038% and 36.5502% and 36.6057% and 35.6628% and 17.3045% and 11.2035% and 27.787%. The “Crossing Frequency (number of platform crossings)” value (nontransgenic mice; [6]) was 4 and 1 and 2 and 3 and 5, the “Latency to Target” value (nontransgenic mice; [6]) was 12.5459 and 7.174 and 15.2486 and 19.2526 and 12.7795 and 12.9463 and 6.24 and 43.31 and 13.5135 and 13.6804 and 10.4438 and 8.842 and 6.84 and 29.0624 and 19.3861 and the “%Target Quadrant (percent time spent in target quadrant)” value (nontransgenic mice; [7]) was 24.3483% and 20.0222% and 43.7604% and 8.4304% and 14.8641% and 36.883% and 28.6744% and 19.3012% and 32.6678% and 33.9434% and 13.6439% and 27.6206% and 18.9684% and 18.4692% and 26.345%. For the same compound, the “Latency to Target” value (nontransgenic mice; [7]) was 47.2473 and 25.4922 and 4.571 and 12.4458 and 24.0908 and 40.0734 and 23.29 and 28.6286 and 42.042 and 38.3383 and 5.506 and 17.9513, the “%Target Quadrant (percent time spent in target quadrant)” value (nontransgenic mice; [8]) was 45.4798% and 27.066% and 23.0727% and 47.7537% and 35.4409% and 31.5031% and 40.9318% and 46.4781% and 25.5685% and 36.6057% and 27.898% and 43.3167% and 22.3516% and 17.7482% and 21.6861% and the “Latency to Target” value (nontransgenic mice; [8]) was 9.843 and 17.3507 and 7.741 and 43.2432 and 4.972 and 20.1201 and 23.7237 and 4.638 and 6.24 and 11.4448 and 27.027 and 19.4194. For the same compound, the “latency to target and crossing frequency vs vehicle” value (nontransgenic mice; 72-hour probe trial, one-way ANOVA) was “no significant improvement”, the Distance (nontransgenic mice; [9]) was 2362.83 and 2250.62 and 2496.09 and 1947.39 and 1168.96 and 2236.97 and 2411.54 and 2035.59 and 1921.1 and 2456.98 and 2337.83 and 2068.76 and 2366.51 and 2250.12 and 2342.92 and the Latency (nontransgenic mice; [9]) was 120.12 and 115.716 and 120.153 (11×) and 70.7374 and 112.312. The Distance (nontransgenic mice; [10]) was 2488.72 and 412.271 and 2629.01 and 582.153 and 2113.12 and 2245.93 and 2084.31 and 208.443 and 322.031 and 2551.61 and 1958.47 and 2254.18 and 2157.45 and 1870.02 and 1903.66, the Latency (nontransgenic mice; [10]) was 120.153 (7×) and 20.1868 and 53.2199 and 101.501 and 119.653 and 16.016 and 18.5852 and 101.535 and 100.467 and the Distance (nontransgenic mice; [11]) was 96.0203 and 1493.55 and 655.096 and 2193.26 and 428.034 and 2346.49 and 668.274 and 682.153 and 2384.94 and 600.87 and 1974.12 and 1289.33 and 2210.56 and 216.348 and 165.502. The Latency (nontransgenic mice; [11]) was 7.307 and 72.6059 and 29.1291 and 120.153 (6×) and 25.7925 and 43.31 and 33.8338 and 32.666 and 11.8785 and 10.01, the Distance (nontransgenic mice; [12]) was 1924.82 and 804.911 and 451.376 and 688.986 and 824.577 and 691.966 and 1226.74 and 1849.83 and 378.165 and 840.629 and the Latency (nontransgenic mice; [12]) was 96.0961 and 35.7357 and 20.6873 and 46.6467 and 38.0714 and 35.4354 and 120.153 and 97.4308 and 17.4174 and 44.2776. The “Crossing Frequency” value (nontransgenic mice; ISRIB 0.1mpk) was 1 and 2 and 5 and 0 and 4 and 3, the Distance (nontransgenic mice; [13]) was 2065.19 and 2495.79 and 2100.99 and 2299.57 and 1083.65 and 2015.54 and 1762.54 and 1784.58 and 1973.36 and 2419.28 and 2296.21 and 1746.93 and 2593.71 and 2297.94 and 2156.55 and the Latency (nontransgenic mice; [13]) was 120.153 (10×) and 56.5566 and 93.994 and 110.677 and 97.7644 and 92.3257. The Distance (nontransgenic mice; [14]) was 2252.57 and 966.538 and 2215.71 and 2563.77 and 445.101 and 2147.24 and 1156.33 and 1018.37 and 2302.03 and 2270.34 and 1964.61 and 2179.88 and 2576.82 and 1685.38 and 1279.26, the Latency (nontransgenic mice; [14]) was 119.753 and 49.4828 and 119.686 and 120.153 (6×) and 23.4902 and 55.5555 and 58.6587 and 114.581 and 80.8141 and 66.8669 and the Distance (nontransgenic mice; [15]) was 2747.59 and 190.327 and 1538.1 and 2351.74 and 241.5 and 531.856 and 1005.53 and 471.756 and 1003.73 and 604.685 and 1640.73 and 351.494 and 2299.54 and 202.419 and 1735.08. For the same compound, the Latency (nontransgenic mice; [15]) was 120.153 (5×) and 12.6126 and 98.365 and 13.9807 and 31.4314 and 77.5108 and 25.1251 and 47.047 and 26.9937 and 17.4174 and 12.5459, the “Crossing Frequency” value (nontransgenic mice; ISRIB 0.25mpk) was 6 and 2 and 0 and 3 and 1 and 7 and the “learning rates to find the hidden platform (latency or distance) vs vehicle” value (nontransgenic mice; MWM #1 training, 0.1 and 0.25 mpk) was “No differences in learning rates”. For the same compound, the “effect on object-place learning” value [2] was “interfered with proper object-place learning”.
